Consider 18 compounds from US12098139B2, “Chemokine receptor modulators and uses thereof” (RAPT Therapeutics, Inc., priority 2018, dated 2024).

The target in this assay is T1, hCCR4 (Chem5-hCCR4 cells) (Homo sapiens, UniProt P51679).
T1 sequence (P51679 1-360): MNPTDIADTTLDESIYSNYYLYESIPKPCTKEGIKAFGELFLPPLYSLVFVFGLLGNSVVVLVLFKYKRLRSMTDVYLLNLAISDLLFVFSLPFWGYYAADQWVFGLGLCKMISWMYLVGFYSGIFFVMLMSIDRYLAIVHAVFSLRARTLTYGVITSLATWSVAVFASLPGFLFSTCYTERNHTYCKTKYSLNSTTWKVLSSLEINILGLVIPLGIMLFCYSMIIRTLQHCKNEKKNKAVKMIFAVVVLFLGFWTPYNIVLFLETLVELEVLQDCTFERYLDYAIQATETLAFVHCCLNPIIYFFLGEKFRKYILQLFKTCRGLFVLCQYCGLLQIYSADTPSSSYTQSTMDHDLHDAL
Kind of assay: Calcium flux assay (CCL22-stimulated, FLIPR Calcium 6 dye). Type of assay: cell-based. As to conditions: Table 3, CCL22 1.5 nM, read-out: Potency (IC50). As for the experimental part:
Calcium Flux Assay. Compounds were evaluated in a calcium flux assay substantially performed as follows. Chem5-hCCR4 cells (EMD Millipore, Hayward, CA; HTS009C) were cultured under standard conditions and frozen in aliquots of 10×10^6 cells/mL. The day prior to compound testing, a vial was rapidly thawed and pipetted into 20 mL media (DMEM+10% FBS+1% Pen-Strep+1% L-glutamine). Cells were harvested by centrifugation and re-suspended in fresh culture medium. 25 μL of cell suspension was seeded into 384-well plates (Corning, Tewksbury, MA; CellBind with black wall/clear bottom). The plates were centrifuged at 300 g for 10 seconds and incubated overnight at 37° C. and 5% CO2. The day of compound testing, media was removed from the plates and 25 μL serum free media was added to each well. Plates were returned to the incubator for 2 h. 25 μL assay buffer (Hank's balanced salt solution+20 mM HEPES pH 7.4) containing FLIPR Calcium 6 dye (Molecular Devices, Sunnyvale, CA; #R8191) and probenecid (2.5 mM) was added to each well and incubated at 37° C. and 5% CO2 for 2 h. Compounds in DMSO were added to the plates using an HP D300e digital dispenser, and all wells were normalized to contain 0.25 μL (0.5%) DMSO. Plates were incubated for 1 hour at 37° C. and 5% CO2. CCL22 (Peprotech; Rockyhill, NJ) was diluted in assay buffer containing 0.1% BSA to 7.5 nM (corresponding to 5×EC80 of 1.5 nM).
Assay plates and working solution of CCL22 were transferred to the FlexStation plate reader (Molecular Devices) at 37° C. for 5 min of equilibration. Fluorescence recordings at 485 excitation/525 emission were performed at 2.5 second intervals. At t=16 seconds, 12.5 μL of CCL22 solution was added to each well and reads continued for 30 seconds at 2.5 second intervals. The minimum fluorescence (Fmin) was calculated by averaging the reads prior to ligand addition and the change in fluorescence (ΔF) was calculated by subtracting the Fmin from the average of the reads following ligand addition. The response ΔF/Fmin was plotted as a function of the compound concentration and the IC50 values were determined by non-linear regression analysis using a 4-parameter fit in either PRISM software (GraphPad; La Jolla, CA) or Dotmatics Browser.
One may read the IC50 as the midpoint of a concentration-inhibition curve. For the compound `Cc1nc(N2CC([C@H]3CCCN([C@H]4C[C@@H](C(=O)O)C4)C3)C2)nc(N[C@H](C)c2ccc(Cl)cc2Cl)c1C` [Example 30, (1S,3s)-3-((R)-3-(1-(4-(((R)-1-(2,4-dichlorophenyl)ethyl)amino)-5,6-dimethylpyrimidin-2-yl)azetidin-3-yl)piperidin-1-yl)cyclobutane-1-carboxylic acid], the IC50 is 100 to 500 nM.

For `C[C@@H](Nc1nc(N2CC([C@H]3CCCN([C@H]4C[C@@H](C(=O)O)C4)C3)C2)nc2ccsc12)c1ccc(Cl)cc1Cl` [Example 31, (1S,3s)-3-((R)-3-(1-(4-(((R)-1-(2,4-dichlorophenyl)ethyl)amino)thieno[3,2-d]pyrimidin-2-yl)azetidin-3-yl)piperidin-1-yl)cyclobutane-1-carboxylic acid], the IC50 is < 100 nM.

For the compound `CCOC(=O)c1cnc(N2CC([C@H]3CCCN(CCO)C3)C2)nc1N[C@H](C)c1ccc(Cl)cc1Cl` [Example 32, ethyl 4-(((R)-1-(2,4-dichlorophenyl)ethyl)amino)-2-(3-((R)-1-(2-hydroxyethyl)piperidin-3-yl)azetidin-1-yl)pyrimidine-5-carboxylate], the IC50 is < 100 nM.

For `C[C@@H](Nc1nc(N2CC([C@H]3CCCN(CCO)C3)C2)ncc1C(=O)O)c1ccc(Cl)cc1Cl` [Example 33, 4-(((R)-1-(2,4-dichlorophenyl)ethyl)amino)-2-(3-((R)-1-(2-hydroxyethyl)piperidin-3-yl)azetidin-1-yl)pyrimidine-5-carboxylic acid], the IC50 was > 500 nM.

As to `C[C@@H](Nc1nc(N2CC(C3CCCN(CCN4CCCC4=O)C3C(=O)O)C2)ncc1Cl)c1ccc(Cl)cc1Cl` (stereo partly drawn) [Example 34, 3-(1-(5-chloro-4-(((R)-1-(2,4-dichlorophenyl)ethyl)amino)pyrimidin-2-yl)azetidin-3-yl)-1-(2-(2-oxopyrrolidin-1-yl)ethyl)piperidine-2-carboxylic acid], the IC50 was in the range of 100 to 500 nM.

In the case of `C[C@@H](Nc1nc(N2CC([C@H]3CCCN([C@H]4C[C@](C)(C(=O)O)C4)C3)C2)ncc1C(C)(C)O)c1ccc(Cl)cc1Cl` [Example 35, (1R,3r)-3-((R)-3-(1-(4-(((R)-1-(2,4-dichlorophenyl)ethyl)amino)-5-(2-hydroxypropan-2-yl)pyrimidin-2-yl)azetidin-3-yl)piperidin-1-yl)-1-methylcyclobutane-1-carboxylic acid], the IC50 is < 100 nM.

`Cc1cnc(N2CC([C@H]3CCCN([C@H]4C[C@](C)(C(=O)O)C4)C3)C2)nc1N[C@H](C)c1ccc(Cl)cc1Cl` [Example 36, (1R,3r)-3-((R)-3-(1-(4-(((R)-1-(2,4-dichlorophenyl)ethyl)amino)-5-methylpyrimidin-2-yl)azetidin-3-yl)piperidin-1-yl)-1-methylcyclobutane-1-carboxylic acid]: the IC50 lay in the range of 100 to 500 nM.

Consider `C[C@@H](Nc1nc(N2CC([C@H]3CCCN([C@H]4C[C@](C)(C(=O)O)C4)C3)C2)nc(C(F)(F)F)c1Cl)c1ccc(Cl)cc1Cl` [Example 37, (1R,3r)-3-((R)-3-(1-(5-chloro-4-(((R)-1-(2,4-dichlorophenyl)ethyl)amino)-6-(trifluoromethyl)pyrimidin-2-yl)azetidin-3-yl)piperidin-1-yl)-1-methylcyclobutane-1-carboxylic acid], for which the IC50 is < 100 nM.

In the case of `Cc1nc(N2CC([C@H]3CCCN([C@H]4C[C@](C)(C(=O)O)C4)C3)C2)nc(N[C@H](C)c2ccc(Cl)cc2Cl)c1Cl` [Example 38, (1R,3r)-3-((R)-3-(1-(5-chloro-4-(((R)-1-(2,4-dichlorophenyl)ethyl)amino)-6-methylpyrimidin-2-yl)azetidin-3-yl)piperidin-1-yl)-1-methylcyclobutane-1-carboxylic acid], the IC50 is < 100 nM.

On to `C[C@@H](Nc1nc(N2CC([C@H]3CCCN([C@H]4C[C@](C)(C(=O)O)C4)C3)C2)ncc1C(F)(F)F)c1ccc(Cl)cc1Cl` [Example 39, (1R,3r)-3-((R)-3-(1-(4-(((R)-1-(2,4-dichlorophenyl)ethyl)amino)-5-(trifluoromethyl)pyrimidin-2-yl)azetidin-3-yl)piperidin-1-yl)-1-methylcyclobutane-1-carboxylic acid], for which the IC50 was < 100 nM.

Turning to `C[C@@H](Nc1nc(N2CC([C@H]3CCCN([C@H]4C[C@@](C)(C(=O)O)C4)C3)C2)ncc1Cl)c1ccc(Cl)cc1Cl` [Example 40, (1S,3s)-3-((R)-3-(1-(5-chloro-4-(((R)-1-(2,4-dichlorophenyl)ethyl)amino)pyrimidin-2-yl)azetidin-3-yl)piperidin-1-yl)-1-methylcyclobutane-1-carboxylic acid], the IC50 was < 100 nM.

As to `C[C@@H](Nc1nc(N2CC([C@H]3CCCN([C@H]4C[C@](C)(C(=O)O)C4)C3)C2)ncc1C1CC1)c1ccc(Cl)cc1Cl` [Example 41, (1R,3r)-3-((R)-3-(1-(5-cyclopropyl-4-(((R)-1-(2,4-dichlorophenyl)ethyl)amino)pyrimidin-2-yl)azetidin-3-yl)piperidin-1-yl)-1-methylcyclobutane-1-carboxylic acid], the IC50 was < 100 nM.

For the compound `C[C@@H](Nc1nc(N2CC([C@H]3CCCN(CCO)C3)C2)ncc1C#N)c1ccc(S(C)(=O)=O)cc1Cl` [Example 42, 4-(((R)-1-(2-chloro-4-(methylsulfonyl)phenyl)ethyl)amino)-2-(3-((R)-1-(2-hydroxyethyl)piperidin-3-yl)azetidin-1-yl)pyrimidine-5-carbonitrile], the half-inhibitory concentration (IC50) is > 500 nM.

As to `C[C@@H](Nc1nc(N2CC([C@H]3CCCN(CCO)C3)C2)ncc1Br)c1ccc(F)cc1Cl` [Example 43, 2-((R)-3-(1-(5-bromo-4-(((R)-1-(2-chloro-4-fluorophenyl)ethyl)amino)pyrimidin-2-yl)azetidin-3-yl)piperidin-1-yl)ethan-1-ol], the IC50 was < 100 nM.

On to `C[C@@H](Nc1nc(N2CC([C@H]3CCCN(CCO)C3)C2)ncc1Cl)c1ccc(F)cc1Cl` [Example 44, 2-((R)-3-(1-(5-chloro-4-(((R)-1-(2-chloro-4-fluorophenyl)ethyl)amino)pyrimidin-2-yl)azetidin-3-yl)piperidin-1-yl)ethan-1-ol], for which the IC50 lay within 100 to 500 nM.

For `C[C@@H](Nc1nc(N2CC([C@H]3CCCN([C@H]4C[C@](C)(C(=O)O)C4)C3)C2)ncc1Br)c1ccc(F)cc1Cl` [Example 45, (1R,3r)-3-((R)-3-(1-(5-bromo-4-(((R)-1-(2-chloro-4-fluorophenyl)ethyl)amino)pyrimidin-2-yl)azetidin-3-yl)piperidin-1-yl)-1-methylcyclobutane-1-carboxylic acid], the IC50 is < 100 nM.

As to `C[C@@H](Nc1nc(N2CC([C@H]3CCCN([C@H]4C[C@@H](C(=O)O)C4)C3)C2)ncc1F)c1ccc(Cl)cc1Cl` [Example 46, (1S,3s)-3-((R)-3-(1-(4-(((R)-1-(2,4-dichlorophenyl)ethyl)amino)-5-fluoropyrimidin-2-yl)azetidin-3-yl)piperidin-1-yl)cyclobutane-1-carboxylic acid], the IC50 was > 500 nM.

`C[C@@H](Nc1nc(N2CC([C@H]3CCCN([C@H]4C[C@](C)(C(=O)O)C4)C3)C2)ncc1F)c1ccc(Cl)cc1Cl` [Example 47, (1R,3r)-3-((R)-3-(1-(4-(((R)-1-(2,4-dichlorophenyl)ethyl)amino)-5-fluoropyrimidin-2-yl)azetidin-3-yl)piperidin-1-yl)-1-methylcyclobutane-1-carboxylic acid]: the IC50 lay in the range of 100 to 500 nM.
